This note sets out measurements from BindingDB's records for doi:10.1002/cbic.200500168 (University of Leipzig, 2005).

In the assay the target is T1, Kinesin-like protein KIF11 (Homo sapiens, UniProt P52732).
T1 sequence (P52732 whole entry): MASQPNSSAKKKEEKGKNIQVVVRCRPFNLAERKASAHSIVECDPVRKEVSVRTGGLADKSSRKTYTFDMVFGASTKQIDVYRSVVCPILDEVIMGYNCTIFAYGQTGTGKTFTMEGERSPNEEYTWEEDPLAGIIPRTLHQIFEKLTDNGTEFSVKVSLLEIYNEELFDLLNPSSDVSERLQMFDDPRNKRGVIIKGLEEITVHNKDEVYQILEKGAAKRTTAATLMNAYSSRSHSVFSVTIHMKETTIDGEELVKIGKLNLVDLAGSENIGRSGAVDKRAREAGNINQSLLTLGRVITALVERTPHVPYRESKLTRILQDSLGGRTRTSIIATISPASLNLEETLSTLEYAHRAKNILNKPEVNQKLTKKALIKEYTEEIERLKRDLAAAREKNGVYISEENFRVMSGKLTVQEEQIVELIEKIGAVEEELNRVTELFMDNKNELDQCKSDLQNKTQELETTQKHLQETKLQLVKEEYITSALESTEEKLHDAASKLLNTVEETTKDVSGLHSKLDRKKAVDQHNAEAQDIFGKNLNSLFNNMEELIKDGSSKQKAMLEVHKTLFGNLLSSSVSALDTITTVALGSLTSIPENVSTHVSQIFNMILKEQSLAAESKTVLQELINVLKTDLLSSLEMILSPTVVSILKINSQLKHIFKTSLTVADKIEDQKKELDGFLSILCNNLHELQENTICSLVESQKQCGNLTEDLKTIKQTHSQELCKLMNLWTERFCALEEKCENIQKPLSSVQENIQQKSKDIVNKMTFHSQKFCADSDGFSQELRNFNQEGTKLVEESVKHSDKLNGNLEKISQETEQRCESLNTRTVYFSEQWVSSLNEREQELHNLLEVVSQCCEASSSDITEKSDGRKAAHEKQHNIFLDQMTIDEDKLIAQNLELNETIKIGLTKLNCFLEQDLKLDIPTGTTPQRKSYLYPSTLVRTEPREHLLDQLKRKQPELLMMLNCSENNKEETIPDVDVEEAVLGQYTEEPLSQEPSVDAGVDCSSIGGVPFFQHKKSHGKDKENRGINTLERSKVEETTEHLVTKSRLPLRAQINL
In words: Malachite Green Assay. Conditions: pH 6.8; 25 °C. The protocol: The ATPase activity of the Eg5 motor domain was measured by using the malachite green assay.
A word on the IC50: it is the concentration that inhibits the measured activity by half. A higher IC50 goes with lower potency. In turn, `Oc1cccc(C2NC(=S)Nc3ccc(Cl)cc32)c1` (stereo not given) [VS-42] had an IC50 of 5.77 µM.

For the molecule `Oc1cccc(C2NC(=S)Nc3cccc(F)c32)c1` (stereo not given) [VS-83], it took 1.17 µM to reach half-maximal inhibition (IC50).

For the molecule `Oc1cccc(C2NC(=S)Nc3ccc(F)cc32)c1` (stereo not given) [VS-77], 8.04 µM corresponded to half-maximal inhibition (IC50). This IC50 is about 6.9-fold higher than that of the molecule before.

With `Cc1ccc2c(c1)NC(=S)NC2c1cccc(O)c1` (stereo not given) [VS-91], the IC50 came out at 7.59 µM.

`Oc1cccc(C2NC(=S)Nc3cc(F)c(F)cc32)c1` (stereo not given) [VS-87] showed an IC50 of 2.74 µM.

Molecule `Cc1ccc2c(c1)C(c1cccc(O)c1)NC(=S)N2` (stereo not given) [VS-94] came in with an IC50 of 2.73 µM.

With `Oc1cccc(C2NC(=S)Nc3ccccc32)c1` (stereo not given) [VS-12], it took 7.6 µM to reach half-maximal inhibition (IC50).

Take `CCOC(=O)C1C(C)=NC(=S)N[C@H]1c1cccc(O)c1` (stereo not given in full) [Monastrol]: the midpoint of inhibition, the IC50, lay at 20.7 µM.

`Oc1cccc(C2NC(=S)Nc3ccc(Br)cc32)c1` (stereo not given) [VS-17] registered an IC50 of 5.75 µM.

Regarding `Oc1cccc(C2NC(=S)Nc3cc(F)ccc32)c1` (stereo not given) [VS-54], inhibition was half-maximal at 1.81 µM (IC50). This IC50 lies about 3.2-fold lower than the previous one.
